Measurements reported in patent US9738610B2, “Indazole derivatives and uses thereof” (Whitehead Institute for Biomedical Research, priority 2012, dated 2017).
Entries after “also recorded” stand apart in the source; their conditions may differ.

Tests used:
[1] = target: cytochrome B of S. cerevisiae resistant to known antifungal agents (Saccharomyces cerevisiae, UniProt P00163, L275F); conditions: FIG. 14A curve 3
Procedure: (§1) Compounds described herein were added to plates in a buffer containing 50 mM Tris-Cl pH 7.3, 10 mM NaN3, 0.01% BSA, and 0.05% Tween-20. Mitochondrial membranes (2-5 μg protein) were added to the buffer, followed by oxidized equine cytochrome C (Sigma) at a final concentration of 50 μM. Reactions were initiated by adding decylubiquinol to a final concentration of 50 μM. Reaction progress was monitored by reading the increase in signal at 550 nm on a Tecan Evo plate reader. […] All measurements were performed in triplicate.

[2] = tested on: Aspergillus terreus; experiment: Aspergillus terreus susceptibility test (CLSI M38-A2); type: cell-based
Procedure: Aspergillus terreus (A. terreus) susceptibility testing was performed as described in Clinical Laboratory Standards Institute document […]-A2 (CLSI […]-A2) (CLSI. Reference Method for Broth Dilution Antifungal Susceptibility Testing of Filamentous Fungi; Approved Standard-Second Edition. CLSI, 940 West Valley Road, Suite 1400, Wayne, Pa. 19087-1898 USA, 2003).

[3] = target: cytochrome B of yeast S. cerevisiae (wild type) (Saccharomyces cerevisiae, UniProt P00163); experiment: biochemical
[4] = target: T1, human Complex III (Homo sapiens, UniProt P00156); experiment: In vitro inhibition of Complex III, human enzyme; type: biochemical; conditions: FIG. 14A curve 2
T1 construct: Mitochondrial membranes were prepared from yeast (Meisinger et al., Methods Mol. Biol. 2006, 313:33-9.) or HEK293 cells; endogenous in cells; host or cells: HEK293 cells (mitochondrial membranes)
Procedure: as §1

[5] = tested on: Saccharomyces cerevisiae strain W303-1a; experiment: In vivo inhibition of fungal respiration (growth on glycerol); type: cell-based; conditions: glycerol medium, 48 hours
Procedure: Saccharomyces cerevisiae (S. cerevisiae) strain W303-1a was grown overnight in Yeast-Peptone-Dextrose media, washed, and diluted into Yeast Nitrogen Base media with 2.5% glycerol containing compounds at a range of dilutions.

[6] = tested on: C. albicans; experiment: Candida albicans susceptibility test (CLSI M27-A3); type: cell-based; conditions: FIG. 9
Procedure: Candida albicans susceptibility testing was performed as described in Clinical Laboratory Standards Institute document M27-A3 (CLSI M27-A3) (CLSI. Reference Method for Broth Dilution Antifungal Susceptibility Testing of Yeasts; Approved Standard—Third Edition. CLSI, 940 West Valley Road, Suite 1400, Wayne, Pa. 19087-1898 USA, 2003).

[7] = tested on: Candida albicans strain CaCi-2; experiment: Cytotoxicity to fluconazole-resistant strain CaCi-2; type: cell-based
[8] = tested on: Candida albicans strain SC5314; experiment: Cytotoxicity to fluconazole-sensitive strain SC5314; type: cell-based
[9] = tested on: Candida albicans wild-type; experiment: De novo emergence of fluconazole resistance (colonies after six days); type: cell-based; conditions: I-97 0.5 μM combined with fluconazole 32 mg/L
Procedure: Candida albicans wild-type (WT, FIG. 13, top panel) or rip1/rip1 homozygous deletion mutant (rip1 Δ/Δ, FIG. 13, middle panel) were plated on media in the presence of fluconazole (32 mg/L) or in the absence of fluconazole. The emergence of colonies was monitored after six days.

[10] = target: T2, yeast (Saccharomyces cerevisiae, UniProt P00163); experiment: IC50 values and selectivity of Table 10A (target yeast, anti-target human cytochrome); type: biochemical
T2 construct: Mitochondrial membranes were prepared from yeast; endogenous in cells; host or cells: yeast (mitochondrial membranes)
Procedure: All measurements were performed in triplicate.

[11] = tested on: CaCi-2; experiment: MIC of fluconazole against CaCi-2; type: cell-based; conditions: Candida albicans; read-out: Minimum inhibitory concentration (MIC) against CaCi-2
Procedure: (§2) In order to identify non-fungitoxic chemosensitizers (“probes” or “probe compounds”) of C. albicans, compounds from the NIH's Molecular Libraries Small Molecule Repository (MLSMR) (mli.nih.gov/mli/secondary-menu/mlscn/ml-small-molecule-repository/) were evaluated in the screening cascade summarized in FIG. 3. The C. albicans strains used in the primary screen and secondary assay 1 (CaCi-2 and CaCi-8, respectively) are both clinical isolates that partially respond to fluconazole treatment (Redding et al., Clin. Infect. Dis. 1994, 18, 240-242). […] In the primary assay, CaCi-2 cells are exposed to 8 μg/mL fluconazole; this induces a basal level of 60-80% growth inhibition with additional suppression of the trailing growth associated with this particular strain (Redding et al., Clin. Infect. Dis. 1994, 18, 240-242).

[12] = tested on: CaCi-8; experiment: MIC of fluconazole against CaCi-8; type: cell-based; conditions: Candida albicans; read-out: Minimum inhibitory concentration (MIC) against CaCi-8
Procedure: as §2

[13] = tested on: C. albicans CaCi-2; experiment: CaCi-2 growth inhibition in the presence of 8 μg/ml fluconazole (Alamar Blue); type: cell-based, Candida albicans; conditions: Candida albicans, CACI2; 8 μg/mL fluconazole alone in the primary assay; read-out: Basal level of growth inhibition of CaCi-2
Procedure: Fluconazole was obtained from Sequoia Research Products, Ltd. and prepared in a 2 mg/ml stock solution in phosphate buffered saline (PBS). […] PBS (Catalog No. 21-040-CV) without calcium and magnesium was obtained from Cellgro. Penicillin/Streptomycin (Pen/Strep) was obtained from Gibco and prepared 100× in PBS.
RPMI medium (1×) was prepared by dissolving 10.4 g powdered medium in 800 ml water. A buffer of 34.52 g MOPS was added. While stirring, pH was adjusted to 7.0 with 10 N NaOH. Next, 10 ml uridine solution and 50 ml glucose solution were added. The final volume was adjusted to 1000 ml, and filter sterilized.
The following yeast strains were used in this study: C. albicans CaCi-2. Fungal inoculum was prepared as follows: 500 μl of strain was inoculated from cryopreserved stock into a 250-ml shaker flask containing 30 ml growth medium and shaken overnight at 30° C. The optical density (OD 600) of 1 ml fungal culture in a cuvette was read using a standard optical density reader (Eppendorf BioPhotometer Plus), with growth medium as a background blank. The desired volume of fungal inoculums was diluted to desired volume of fungal inoculums according to the following formula: (1/OD measured)×(Desired Final Volume of Inoculum)×0.3=Volume of fungal culture (μl) to add to desired volume of growth medium. When added to media in wells, this yields a calculated starting OD of the fungal inoculum of 0.00015.
Fluconazole stock solution was added to the fungal inoculum to achieve 8 μg/ml. Pen/Strep was added to the media to a 1% concentration (v/v). A Thermo Combi nL was used to dispense 20 μl/well of assay media into all wells. Geldanamycin was dispensed in positive control wells using Thermo Combi nL for a final concentration of 3 μM. Then, 100 nl of test compound was pinned from compound plates into assay plates using a CyBi-Well pin tool. A further 20 μl/well of culture was dispensed into the assay media in all wells. The plates were incubated in a humidified (90% humidity) Liconic incubator at 37° C. without agitation for 48 hours. Alamar Blue was diluted 1:40 in Ca/Mg-free PBS. To all plates, […] of the diluted Alamar Blue was added to the plates to a final dilution factor of 1:200. The plates were incubated for an additional 2 hours. Then, Relative Fluorescence Intensity (RFU) of each well was read on standard plate reader as a measure of relative fungal growth.

[14] = tested on: C. albicans; conditions: cited from earlier work
[15] = tested on: fungus; conditions: read-out: IC50, single-agent antifungal activity; cited from earlier work

COC(=O)Cn1nc(-c2ccccc2)c2ccccc21 [Compound I-3]
Inhibitory activity against resistant S. cerevisiae [1]: showed inhibitory activity | Inhibitory activity against A. terreus [2]: shows inhibitory activity | IC50 [3]: ~600 nM | Inhibition of human Complex III in vitro [4]: active | Inhibitory activity against S. cerevisiae (respiratory growth) [5]: completely inhibits respiratory growth; also recorded: shows inhibitory activity

c1ccc(COc2cccc(-c3nn(Cc4nnco4)c4ccccc34)c2)cc1 [Compound I-52]
Inhibitory activity against A. terreus [2]: shows inhibitory activity | Inhibitory activity against S. cerevisiae (respiratory growth) [5]: shows inhibitory activity | Inhibition of C. albicans in absence and presence of fluconazole (FCZ) [6]: more active in inhibiting C. albicans in presence of fluconazole (FCZ) than in absence thereof

COC(=O)Cn1nc(-c2cc(C(F)(F)F)ccc2F)c2cccc(C)c21 [Compound I-97]
Effect on CaCi-2 ([7]; combination with fluconazole): cytotoxic | Effect on SC5314 ([8]; combination with fluconazole): cytotoxic | Emergence of resistance to fluconazole [9]: prevented the emergence of the resistance to fluconazole | IC50 ([10]; target is yeast): 4 nM | Selectivity* (anti-target IC50)/(target IC50) ([10]; target yeast, anti-target human cytochrome): 200

OC(Cn1cncn1)(Cn1cncn1)c1ccc(F)cc1F [fluconazole, reference compound]
MIC [11]: 2 µg/mL | Effect on CaCi-2 ([7]; fluconazole alone): not cytostatic or cytotoxic | MIC [12]: 8 µg/mL | inhibition at 8 µg/mL [13]: 60 to 80% | Effect on SC5314 ([8]; fluconazole alone): cytostatic, but not cytotoxic

Plagiochin E
Concentration that increased yeast susceptibility to fluconazole [14]: 2.4 µM | IC50 [15]: 3800 nM
